Where a name gives a salt, the structure may show the parent alone. Read-outs that look alike come from different tables or passages of the source.
Legend:
Human 5-HT2B = biological target: T1, Human 5-HT2B (Homo sapiens, UniProt P41595); assay: [3H]Serotonin radioligand binding, human 5-HT2B;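 note: competition of tritiated serotonin binding to cell membranes, bound radioactivity on filters counted by liquid scintillation, IC50 from logistic fits converted to Ki with the Cheng-Prusoff equation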
T1 construct: expressed in transfected cells
T1 sequence (P41595 whole entry): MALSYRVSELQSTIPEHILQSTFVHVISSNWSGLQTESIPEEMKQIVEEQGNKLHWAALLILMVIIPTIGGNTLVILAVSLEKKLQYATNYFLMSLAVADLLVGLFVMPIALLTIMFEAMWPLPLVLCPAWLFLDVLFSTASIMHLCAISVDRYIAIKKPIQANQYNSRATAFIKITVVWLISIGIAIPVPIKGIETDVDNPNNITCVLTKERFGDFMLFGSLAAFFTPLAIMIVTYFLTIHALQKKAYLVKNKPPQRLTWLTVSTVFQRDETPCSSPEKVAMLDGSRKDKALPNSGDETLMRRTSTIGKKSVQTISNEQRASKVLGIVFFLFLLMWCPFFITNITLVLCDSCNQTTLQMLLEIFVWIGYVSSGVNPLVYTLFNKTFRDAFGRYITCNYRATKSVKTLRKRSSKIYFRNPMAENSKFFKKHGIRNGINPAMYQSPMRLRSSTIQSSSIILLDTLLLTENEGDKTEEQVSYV

Human 5-HT2A = Human 5-HT2A (Homo sapiens, UniProt P28223); assay: [125I]DOI radioligand binding, human 5-HT2A
Human 5-HT2A, sequence (P28223 whole entry): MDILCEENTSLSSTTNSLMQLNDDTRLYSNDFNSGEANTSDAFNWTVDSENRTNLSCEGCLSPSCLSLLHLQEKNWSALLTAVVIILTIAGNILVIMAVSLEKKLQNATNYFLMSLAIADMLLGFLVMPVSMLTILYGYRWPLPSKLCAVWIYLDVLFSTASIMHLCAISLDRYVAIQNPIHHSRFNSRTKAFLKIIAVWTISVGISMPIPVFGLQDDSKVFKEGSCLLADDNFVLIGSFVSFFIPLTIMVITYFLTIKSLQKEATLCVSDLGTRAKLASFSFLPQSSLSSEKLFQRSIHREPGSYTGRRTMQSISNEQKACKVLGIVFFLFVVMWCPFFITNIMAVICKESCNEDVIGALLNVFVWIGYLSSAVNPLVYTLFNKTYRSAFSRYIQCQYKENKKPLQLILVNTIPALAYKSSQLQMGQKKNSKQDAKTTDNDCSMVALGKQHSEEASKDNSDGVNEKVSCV

rat 5-HT2B receptor = rat 5-HT2B receptor (Rattus norvegicus, UniProt P30994); assay: biochemical; assay type: binding;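 note: displacement of [3H]5-HT from membranes of suspension cells carrying cloned rat 5-HT2B receptor, incubated 15 min at 37 °C or 2 h at 0 °C, filter-bound radioactivity counted by scintillation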
rat 5-HT2B receptor, sequence (P30994 whole entry): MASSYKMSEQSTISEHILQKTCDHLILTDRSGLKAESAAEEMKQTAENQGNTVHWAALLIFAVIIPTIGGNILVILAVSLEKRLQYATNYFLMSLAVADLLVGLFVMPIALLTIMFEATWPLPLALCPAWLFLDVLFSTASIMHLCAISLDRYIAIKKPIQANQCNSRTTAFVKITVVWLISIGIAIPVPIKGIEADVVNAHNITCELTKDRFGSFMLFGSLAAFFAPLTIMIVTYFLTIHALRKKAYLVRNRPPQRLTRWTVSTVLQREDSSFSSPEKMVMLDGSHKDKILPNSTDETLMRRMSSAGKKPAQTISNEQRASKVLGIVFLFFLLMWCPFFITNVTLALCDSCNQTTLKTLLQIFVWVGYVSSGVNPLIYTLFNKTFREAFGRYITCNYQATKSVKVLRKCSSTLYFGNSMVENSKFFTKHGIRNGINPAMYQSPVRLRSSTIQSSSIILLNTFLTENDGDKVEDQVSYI

Rat 5-HT2A = Rat 5-HT2A (Rattus norvegicus, UniProt P14842); assay: [125I]DOI radioligand binding, rat 5-HT2A; settings: AVG
Rat 5-HT2A, sequence (P14842 whole entry): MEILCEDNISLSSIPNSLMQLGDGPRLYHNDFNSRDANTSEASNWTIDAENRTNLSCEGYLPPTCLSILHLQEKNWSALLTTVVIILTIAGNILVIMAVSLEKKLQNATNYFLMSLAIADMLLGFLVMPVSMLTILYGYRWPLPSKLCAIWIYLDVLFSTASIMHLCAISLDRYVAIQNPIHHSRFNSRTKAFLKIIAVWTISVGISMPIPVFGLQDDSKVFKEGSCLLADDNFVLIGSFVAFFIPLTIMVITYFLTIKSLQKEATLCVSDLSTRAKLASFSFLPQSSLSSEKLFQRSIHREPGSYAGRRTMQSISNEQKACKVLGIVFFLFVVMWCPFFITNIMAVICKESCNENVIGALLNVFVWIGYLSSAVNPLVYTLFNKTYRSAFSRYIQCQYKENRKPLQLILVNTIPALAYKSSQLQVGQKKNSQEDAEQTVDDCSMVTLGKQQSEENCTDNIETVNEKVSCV

distal colon = assay: Functional in vitro assay: antagonism of serotonin contraction of rat distal colon longitudinal muscle; settings: vs serotonin
Description: Functional In vitro Assay:
Sprague-Dawley rats (200-250g; Laboratory Supply, Indianapolis, Ind.) were sacrificed by cervical dislocation and 8 cm segment of distal colon was removed and washed in ice cold modified Kreb's solution of the following composition (millimolar): Nacl, 118.2; Kcl, 4.6; Cacl2. H2 O, 1.6; KH2 PO4, 1.2; MgSO4, 1.2; dextrose, 10.0; and NaHCO3, 24.8. The colon was mounted on a glass rod and the longitudinal muscle layer with attached myenteric plexi was removed and mounted in organ baths, containing above described Kreb's solution maintained at 37° C. and equilibrated with 95% O2 and 5% CO2. Tissues were placed under 2 g tension and allowed to stabilize for 1 hour. Isometric contractions were recorded as changes in grams of force using grass FT03 transducers and MI^2 - computerized dynograph system. Cumulative concentration-response curves for serotonin were obtained by a stepwise increase in concentration after washing out the preceding concentration for 10-15 minutes. Each agonist concentration remained in contact with the tissue for 5 minutes. Maximum response to each concentration was determined and digitized. EC50 values were taken as the concentration of agonist that produced half maximal contraction. After control responses were obtained, tissues were incubated with an appropriate concentration of antagonist for 15 minutes. Response to serotonin were then repeated in the presence of an antagonist. Concentration-response utilized only one concentration of antagonist per tissue. Apparent antagonist dissociation constants (KB) were determined for each concentration of antagonist according to the following equation:
KB =[B]/(dose ratio-1), where [B] is the concentration of the antagonist and dose ratio is the ED50 of the agonist in the presence of antagonist divided by the control ED50. The results were expressed as the negative logarithm of the KB (i.e., -log KB) (Br. J. Pharmacol. Methods 4:4165, (1980).
The functional in vitro method described supra. was used to test compounds of this invention. Values are expressed as pKi and pA2 (-log KB). The following table illustrates the results obtained when the compounds were tested using the Radioligand assay supra. (pKi) and the functional in vitro method described supra. (pA2)

[1] = biological target: 5-HT2B receptor (rat stomach fundus) (Rattus norvegicus, UniProt P30994); settings: rat stomach fundus; vs serotonin; ± standard error; read-out: 5-HT2B (Fundus) -log KB (converted);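 note: isometric contraction of isolated male Wistar rat stomach fundus strips, serotonin concentration-response curves after antagonist incubation, KB from dose ratio of agonist potency versus control curve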
5-HT2B receptor (rat stomach fundus), sequence (P30994 whole entry): as the sequence (P30994 whole entry) above

[2] = [3H]Serotonin, 5-HT2B cells, AVG, read-out: Ki Human 5-HT2B
[3] = Ki Rat 5-HT2B, [3H]Serotonin, 5-HT2B cells, AVG
[4] = [3H]Serotonin, 5-HT2B cells, AVG, read-out: Ki Rat 5-HT2B
[5] = [125I]DOI, AVG, read-out: Ki Human 5-HT2A

Q: Which Ki (Human 5-HT2B; [2]) does the source give for `CCCNC1CCc2cccc(C(C)=O)c2C1` (stereo not shown) here?
A: 1790 nM

Q: Which Ki (Human 5-HT2A) does the source give for `COc1ccc(CC2NCCc3c2[nH]c2ccc(C)cc32)cc1OC` (stereo not shown) [drawing 144] here?
A: 28.1 nM

Q: `CC(C)n1cc2c3c(cccc31)C1CC(C(=O)NCCN3CCN(c4ccccc4)CC3)CN(C)C1C2` (stereo not shown) was tested. Which Ki (rat 5-HT2B receptor; [3]) did it give?
A: 11.9 nM

Q: What about the Ki (Human 5-HT2A; Ki Human 5-HT2A, [125I]DOI, AVG) of the same molecule?
A: 32.7 nM

Q: For `COc1ccc(CC2NCCc3c2[nH]c2ccc(C)cc32)c(Br)c1OC` (stereo not shown), which Ki (Human 5-HT2B) is on record?
A: 0.37 nM

Q: And the Ki (Human 5-HT2A)?
A: 12.2 nM

Q: What does the source list for `Cc1ccc2[nH]c3c(c2c1)CCNC3Cc1ccc(N(C)C)c2ccccc12` (stereo not shown)?
A: Ki (rat 5-HT2B receptor; [4]): 5.02 nM; Ki (Human 5-HT2B; [2]): 1.64 nM; Ki (Human 5-HT2A): 0.83 nM

Q: How did the Ki (Rat 5-HT2A) turn out when `CC(C)n1cc2c3c(cccc31)C1CC(C(=O)NC3CCCCC3O)CN(C)C1C2` (stereo not shown) [drawing 87] was run?
A: 2.44 nM

Q: What about the Ki (rat 5-HT2B receptor; [3]) of the same molecule?
A: 9.35 nM

Q: What about the Ki (Human 5-HT2A; [5]) of the same molecule?
A: 18.6 nM

Q: With `Cc1ccc2c3c([nH]c2c1Br)CNCC3` as the molecule, how does the Ki (Rat 5-HT2A) read?
A: 15.7 nM

Q: What about the Ki (Human 5-HT2A) of the same molecule?
A: 21.7 nM

Q: How did the Ki (Human 5-HT2B; [2]) turn out when `CCCN(CCC)C1CCc2cccc(-c3ccno3)c2C1` (stereo not shown) was run?
A: 509 nM

Q: And the Ki (Human 5-HT2A; read-out: Ki Human 5-HT2A, [125I]DOI, AVG)?
A: 354 nM

Q: Which Ki (Human 5-HT2B; [2]) does the source give for `CCCN(CCC)C1CCc2cccc(C(=O)C(C)(C)C)c2C1` (single isomer, unassigned) here?
A: 4750 nM

Q: And the Ki (Human 5-HT2A)?
A: 2230 nM

Q: What does the source list for `Cc1ccc2[nH]c3c(c2c1)CCNC3C(C)c1cccc2ccccc12` (stereo not shown)?
A: Ki (rat 5-HT2B receptor; [4]): 3.94 nM; Ki (Human 5-HT2B; [2]): 1.29 nM; Ki (Human 5-HT2A): 5.62 nM

Q: For `COc1ccc(CC2NCCc3c2[nH]c2ccc(C)cc32)c(OC)c1OC.Cl` (stereo not shown) [Example 22, 6-methyl-1-[(2,3,4-trimethoxyphenyl)-methyl]-1,2,3,4-tetrahydro-9H-pyrido[3,4-b]indole hydrochloride], which “pA2 (-log KB)” value (distal colon) is on record?
A: 4.8

Q: And the Kb [1]?
A: 6.17 nM

Q: And the Ki (rat 5-HT2B receptor; Radioligand assay, Table III, read-out: pKi (converted))?
A: 5.37 nM

Q: Which results are given for `CC(C)n1cc2c3c(cccc31)C1CC(C(=O)NC3CCCC3O)CN(C)C1C2` (stereo not shown)?
A: Ki (Human 5-HT2B; read-out: Ki Human 5-HT2B, [3H]Serotonin, 5-HT2B cells, AVG): 2.24 nM; Ki (Human 5-HT2A; [5]): 21.9 nM

Q: What does the source list for `Cc1ccc2c3c([nH]c2c1I)CNCC3`?
A: Ki (rat 5-HT2B receptor; [4]): 15.3 nM; Ki (Human 5-HT2B; [2]): 10.2 nM; Ki (Human 5-HT2A): 17.8 nM

Q: With `CCc1ccc2[nH]c3c(c2c1)CCNC3Cc1cccc2ccccc12` (stereo not shown) as the molecule, how does the Ki (Human 5-HT2B; [2]) read?
A: 2.08 nM

Q: What about the Ki (Human 5-HT2A) of the same molecule?
A: 6.71 nM

Q: What does the source list for `Cc1cc(Br)c2[nH]c3c(c2c1)CCNC3` [drawing 168]?
A: Ki (Rat 5-HT2A): 47 nM; Ki (Human 5-HT2A): 41.7 nM

Q: Which Ki (rat 5-HT2B receptor; [4]) does the source give for `c1ccc2c(N3CCNCC3)cccc2c1` here?
A: 4.5 nM

Q: And the Ki (Human 5-HT2B)?
A: 3.79 nM

Q: Which Ki (rat 5-HT2B receptor; [4]) does the source give for `NCCc1c[nH]c2ccc(C(N)=O)cc12` here?
A: 147 nM

Q: What about the Ki (Human 5-HT2B; [2]) of the same molecule?
A: 128 nM

Q: And the Ki (Human 5-HT2A)?
A: 120 nM

Q: `Brc1ccc2[nH]c3c(c2c1)CCNC3` [6-bromo-1,2,3,4-tetrahydro-9H-pyrido[3,4b]-indole] was tested. Which “pA2 (-log KB)” value (distal colon) did it give?
A: 8.2

Q: Which results are given for `CN1CC(C(=O)NC2CCCCC2)CC2c3cccc4[nH]cc(c34)CC21` (stereo not shown)?
A: Ki (Rat 5-HT2A): 5.12 nM; Ki (rat 5-HT2B receptor; [3]): 19 nM

Q: How did the “pA2 (-log KB)” value (distal colon) turn out when `Cc1ccc2c3c([nH]c2c1Cl)CNCC3` [Example 76, 7-methyl-8-chloro-1,2,3,4-tetrahydro-9H-pyrido[3,4b]-indole] was run?
A: 8.3

Q: `COc1ccc(CC2NCCc3c2[nH]c2c(C)ccc(C)c32)cc1OC` (stereo not shown) [Example 12, 5,8-dimethyl-1,2,3,4-tetrahydro-1-[(3,4-dimethoxyphenyl)methyl]-9H-pyrido[3,4b]indole hydrochloride] was tested. Which Kb [1] did it give?
A: 0.513 nM

Q: For `Brc1cccc2c3c([nH]c12)CNCC3`, which Ki (Rat 5-HT2A) is on record?
A: 25.6 nM

Q: What about the Ki (Human 5-HT2A) of the same molecule?
A: 22.7 nM

Q: `COc1ccc(CC2NCCc3c2[nH]c2ccc(C)c(F)c32)cc1OC` (stereo not shown) [Example 9, 5-fluoro-6-methyl-1-[(3,4-dimethoxyphenyl)-methyl]-1,2,3,4-tetrahydro-9H-pyrido[3,4-b]indole] was tested. Which Kb [1] did it give?
A: 0.501 nM

Q: With `COc1ccc(C(C)C2NCCc3c2[nH]c2ccc(C(C)C)cc32)cc1OC` (stereo not shown) as the molecule, how does the Ki (Human 5-HT2B; [2]) read?
A: 3.46 nM

Q: What about the Ki (Human 5-HT2A) of the same molecule?
A: 201 nM

Q: Which Kb [1] does the source give for `COc1cc(CC2NCCc3c2[nH]c2ccc(C)cc32)cc(N)c1OC` (stereo not shown) [Example 30, 6-methyl-1-[(3,4-dimethoxy-5-amino-phenyl)-methyl]-1,2,3,4-tetrahydro-9H-pyrido[3,4-b]indole dihydrochloride] here?
A: 1.29 nM

— US5688807A, “Method for treating 5HT2B receptor related conditions” (Eli Lilly and Company, priority 1995, dated 1997)
